Data published in ChEMBL document CHEMBL4665665, “4-Aryl Pyrrolidines as Novel Orally Efficacious Antimalarial Agents. Part 2: 2-Aryl-N-(4-arylpyrrolidin-3-yl)acetamides” (ACS Med Chem Lett, 2019).
Calls of active or inactive are those of the source. The rule behind the calls is not given here.

Assays:
Plasmodium falciparum [1] = assay: Antimalarial activity against CQ-sensitive Plasmodium falciparum 3D7 incubated for 72 hrs by SYBR Green-1 dye based fluorescence assay; type: functional, organism-based
Plasmodium chabaudi [2] = assay: Antimalarial activity against Plasmodium chabaudi ASS infected in NIH mouse assessed as inhibition of parasitemia at 10 mg/kg, po qd for 4 days starting from 4 hrs post-parasite inoculation and measured at 24 hrs after last-drug treatment by Peter's 4-day suppressive test relative to control; type: functional; conditions: 96 h
[3] = Plasma concentration in NIH mouse infected with Plasmodium chabaudi ASS at 10 mg/kg, po qd for 4 days starting from 4 hrs post-parasite inoculation and measured at 6 hrs post-dosing on day 4 by LC/MS analysis; type: ADME, organism-based; conditions: dose 10 mg/kg/day, time 4 day
[4] = Plasma concentration in NIH mouse infected with Plasmodium chabaudi ASS at 10 mg/kg, po qd for 4 days starting from 4 hrs post-parasite inoculation and measured at 24 hrs post-dosing on day 4 by LC/MS analysis; type: ADME, organism-based; conditions: dose 10 mg/kg/day, time 4 day
[5] = Plasma concentration in NIH mouse infected with Plasmodium chabaudi ASS at 10 mg/kg, po qd for 4 days starting from 4 hrs post-parasite inoculation and measured at 1 hr post-dosing on day 4 by LC/MS analysis; type: ADME, organism-based; conditions: dose 10 mg/kg/day, time 4 day
Plasmodium chabaudi [6] = assay: Antimalarial activity against Plasmodium chabaudi ASS infected in NIH mouse assessed as inhibition of parasitemia at 30 mg/kg, po qd for 4 days starting from 4 hrs post-parasite inoculation and measured at 24 hrs after last-drug treatment by Peter's 4-day suppressive test relative to control; type: functional; conditions: 96 h
Cytochrome P450 1A2 = target: T1, Cytochrome P450 1A2 (Homo sapiens, UniProt P05177); assay: Inhibition of recombinant human CYP1A2 expressed in baculovirus infected insect cells using phenacetin as substrate incubated for 30 mins in presence of NADPH-regenerating system by fluorescence based assay; type: ADME
T1 sequence (P05177 whole entry): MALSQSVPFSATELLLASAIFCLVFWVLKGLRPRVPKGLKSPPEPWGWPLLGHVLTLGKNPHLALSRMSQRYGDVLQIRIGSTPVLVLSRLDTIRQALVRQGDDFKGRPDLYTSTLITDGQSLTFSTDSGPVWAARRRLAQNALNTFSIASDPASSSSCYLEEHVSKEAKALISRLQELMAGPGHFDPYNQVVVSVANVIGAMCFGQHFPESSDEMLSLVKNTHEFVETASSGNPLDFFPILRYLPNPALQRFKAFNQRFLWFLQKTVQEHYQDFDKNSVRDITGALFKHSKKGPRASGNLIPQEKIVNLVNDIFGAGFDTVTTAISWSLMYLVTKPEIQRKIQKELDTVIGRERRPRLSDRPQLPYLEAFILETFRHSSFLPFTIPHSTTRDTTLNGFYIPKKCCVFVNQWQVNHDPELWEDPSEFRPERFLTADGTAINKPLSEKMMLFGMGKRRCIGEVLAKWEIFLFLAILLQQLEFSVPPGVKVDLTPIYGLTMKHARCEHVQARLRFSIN

Plasmodium falciparum [7] = assay: Antimalarial activity against multidrug resistant Plasmodium falciparum Dd2 incubated for 72 hrs by SYBR Green-1 dye based fluorescence assay; type: functional, organism-based; conditions: Dd2, 72 h
Cytochrome P450 3A4 = Cytochrome P450 3A4 (Homo sapiens, UniProt P08684); assay: Inhibition of recombinant human CYP3A4 expressed in baculovirus infected insect cells using midazolam as substrate incubated for 30 mins in presence of NADPH-regenerating system by fluorescence based assay; type: ADME
Cytochrome P450 3A4, sequence (P08684 whole entry): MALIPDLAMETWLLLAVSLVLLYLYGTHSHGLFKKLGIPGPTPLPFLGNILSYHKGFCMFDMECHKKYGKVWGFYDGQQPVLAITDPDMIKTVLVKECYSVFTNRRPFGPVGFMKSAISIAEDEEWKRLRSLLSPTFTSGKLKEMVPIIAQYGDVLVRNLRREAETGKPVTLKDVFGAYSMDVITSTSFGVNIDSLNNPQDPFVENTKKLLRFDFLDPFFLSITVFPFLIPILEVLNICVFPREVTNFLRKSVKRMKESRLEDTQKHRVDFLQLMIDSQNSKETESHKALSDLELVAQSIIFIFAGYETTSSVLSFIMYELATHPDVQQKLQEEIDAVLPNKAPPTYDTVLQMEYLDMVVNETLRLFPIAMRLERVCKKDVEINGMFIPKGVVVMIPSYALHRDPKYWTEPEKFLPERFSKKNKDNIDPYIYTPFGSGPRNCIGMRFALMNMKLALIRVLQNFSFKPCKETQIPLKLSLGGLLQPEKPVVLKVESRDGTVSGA

Plasmodium falciparum [8] = assay: Inhibition of Plasmodium falciparum plasmepsin 4 using PM-2 peptide substrate incubated for 60 mis by fluorescence based assay; conditions: time 60.0 min
[9] = Ratio of IC50 for antimalarial activity against CQ-sensitive Plasmodium falciparum 3D7 incubated for 72 hrs by SYBR Green-1 dye based fluorescence assay to Plasma concentration in NIH mouse infected with Plasmodium chabaudi ASS at 10 mg/kg, po qd for 4 days starting from 4 hrs post-parasite inoculation and measured at 24 hrs post-dosing on day 4 by LC/MS analysis
hERG = assay: Selectivity ratio of IC50 for human ERG incubated for 2 hrs by fluorescence polarization assay to IC50 for CQ-sensitive Plasmodium falciparum 3D7 incubated for 72 hrs by SYBR Green-1 dye based fluorescence assay; type: toxicity; conditions: read-out: Ratio IC50
[10] = target: Plasmepsin II (Plasmodium falciparum) (UniProt P46925); assay: Inhibition of Plasmodium falciparum plasmepsin 2 using PM-2 peptide substrate incubated for 60 mis by fluorescence based assay; conditions: time 60.0 min
Plasmepsin II (Plasmodium falciparum), sequence (P46925 125-453 limits assumed): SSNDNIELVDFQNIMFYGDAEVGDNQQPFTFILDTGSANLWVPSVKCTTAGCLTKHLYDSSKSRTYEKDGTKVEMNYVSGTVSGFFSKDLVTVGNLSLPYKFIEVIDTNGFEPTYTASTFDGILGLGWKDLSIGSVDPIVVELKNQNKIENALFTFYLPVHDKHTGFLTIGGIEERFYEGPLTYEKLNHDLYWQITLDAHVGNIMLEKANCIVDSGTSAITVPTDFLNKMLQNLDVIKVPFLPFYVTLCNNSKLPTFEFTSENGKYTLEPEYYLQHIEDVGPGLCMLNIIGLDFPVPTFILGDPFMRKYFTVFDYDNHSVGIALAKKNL

[11] = Apparent clearance in KM mouse at 2 mg/kg, iv administered as cassette dosing measured up to 24 hrs by LC/MS analysis; type: ADME, organism-based; conditions: in vivo
[12] = target: Voltage-gated inwardly rectifying potassium channel KCNH2 (Homo sapiens, UniProt Q12809); assay: Displacement of Tracer Red from human ERG incubated for 2 hrs by fluorescence polarization assay
Voltage-gated inwardly rectifying potassium channel KCNH2, sequence (Q12809 whole entry): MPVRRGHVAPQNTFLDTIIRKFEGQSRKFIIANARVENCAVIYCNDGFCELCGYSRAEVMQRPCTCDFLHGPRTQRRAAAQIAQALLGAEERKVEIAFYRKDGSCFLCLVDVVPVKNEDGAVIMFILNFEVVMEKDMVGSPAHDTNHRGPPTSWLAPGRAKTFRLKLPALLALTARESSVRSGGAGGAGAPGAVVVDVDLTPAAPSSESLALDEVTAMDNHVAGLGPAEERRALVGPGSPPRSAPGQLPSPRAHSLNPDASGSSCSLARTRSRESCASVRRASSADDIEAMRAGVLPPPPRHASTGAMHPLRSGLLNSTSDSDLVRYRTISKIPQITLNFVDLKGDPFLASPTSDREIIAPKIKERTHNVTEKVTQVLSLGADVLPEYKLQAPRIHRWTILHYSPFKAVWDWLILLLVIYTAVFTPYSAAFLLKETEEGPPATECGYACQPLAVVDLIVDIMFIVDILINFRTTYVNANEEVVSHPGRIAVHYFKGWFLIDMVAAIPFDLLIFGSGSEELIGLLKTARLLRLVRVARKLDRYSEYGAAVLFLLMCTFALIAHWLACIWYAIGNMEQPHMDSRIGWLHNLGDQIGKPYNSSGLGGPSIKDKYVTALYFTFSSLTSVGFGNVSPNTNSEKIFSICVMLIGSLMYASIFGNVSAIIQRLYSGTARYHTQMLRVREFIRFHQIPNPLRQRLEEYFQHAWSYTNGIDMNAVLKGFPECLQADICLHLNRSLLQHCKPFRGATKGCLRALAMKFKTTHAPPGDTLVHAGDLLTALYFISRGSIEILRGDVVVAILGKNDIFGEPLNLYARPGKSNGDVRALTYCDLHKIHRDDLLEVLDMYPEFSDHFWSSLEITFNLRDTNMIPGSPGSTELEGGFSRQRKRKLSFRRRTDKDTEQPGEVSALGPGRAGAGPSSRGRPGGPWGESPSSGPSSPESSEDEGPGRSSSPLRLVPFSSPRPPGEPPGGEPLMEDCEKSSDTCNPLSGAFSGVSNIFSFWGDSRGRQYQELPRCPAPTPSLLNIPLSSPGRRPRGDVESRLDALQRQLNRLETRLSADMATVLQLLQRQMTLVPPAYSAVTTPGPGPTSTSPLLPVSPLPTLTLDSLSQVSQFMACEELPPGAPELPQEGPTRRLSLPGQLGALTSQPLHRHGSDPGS

Cytochrome P450 2C19 = Cytochrome P450 2C19 (Homo sapiens, UniProt P33261); assay: Inhibition of recombinant human CYP2C19 expressed in baculovirus infected insect cells using s-mephenytoin as substrate incubated for 30 mins in presence of NADPH-regenerating system by fluorescence based assay; type: ADME
Cytochrome P450 2C19, sequence (P33261 whole entry): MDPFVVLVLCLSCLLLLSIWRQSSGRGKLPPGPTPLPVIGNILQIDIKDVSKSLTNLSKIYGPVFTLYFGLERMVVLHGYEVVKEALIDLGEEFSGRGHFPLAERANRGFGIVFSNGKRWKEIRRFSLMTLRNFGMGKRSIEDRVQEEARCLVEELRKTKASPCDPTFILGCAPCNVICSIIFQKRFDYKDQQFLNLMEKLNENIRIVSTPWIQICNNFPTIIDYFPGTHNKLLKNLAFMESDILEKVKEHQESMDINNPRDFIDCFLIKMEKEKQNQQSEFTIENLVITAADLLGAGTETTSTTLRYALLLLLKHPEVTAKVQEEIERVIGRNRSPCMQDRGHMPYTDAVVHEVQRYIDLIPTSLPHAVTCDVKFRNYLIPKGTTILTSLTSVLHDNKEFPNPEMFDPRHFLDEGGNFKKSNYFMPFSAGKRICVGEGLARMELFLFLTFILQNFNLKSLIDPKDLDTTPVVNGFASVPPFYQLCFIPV

HepG2 = assay: Cytotoxicity against human HepG2 cells assessed as cell viability at 5 uM incubated for 72 hrs by PrestoBlue cell viability reagent based assay; conditions: hepg2, 72 h
[13] = Apparent volume of distribution in KM mouse at 2 mg/kg, iv administered as cassette dosing measured up to 24 hrs by LC/MS analysis; type: ADME, organism-based; conditions: in vivo, read-out: Vz
Cytochrome P450 2C9 = Cytochrome P450 2C9 (Homo sapiens, UniProt P11712); assay: Inhibition of recombinant human CYP2C9 expressed in baculovirus infected insect cells using tolbutamide as substrate incubated for 30 mins in presence of NADPH-regenerating system by fluorescence based assay; type: ADME
Cytochrome P450 2C9, sequence (P11712 whole entry): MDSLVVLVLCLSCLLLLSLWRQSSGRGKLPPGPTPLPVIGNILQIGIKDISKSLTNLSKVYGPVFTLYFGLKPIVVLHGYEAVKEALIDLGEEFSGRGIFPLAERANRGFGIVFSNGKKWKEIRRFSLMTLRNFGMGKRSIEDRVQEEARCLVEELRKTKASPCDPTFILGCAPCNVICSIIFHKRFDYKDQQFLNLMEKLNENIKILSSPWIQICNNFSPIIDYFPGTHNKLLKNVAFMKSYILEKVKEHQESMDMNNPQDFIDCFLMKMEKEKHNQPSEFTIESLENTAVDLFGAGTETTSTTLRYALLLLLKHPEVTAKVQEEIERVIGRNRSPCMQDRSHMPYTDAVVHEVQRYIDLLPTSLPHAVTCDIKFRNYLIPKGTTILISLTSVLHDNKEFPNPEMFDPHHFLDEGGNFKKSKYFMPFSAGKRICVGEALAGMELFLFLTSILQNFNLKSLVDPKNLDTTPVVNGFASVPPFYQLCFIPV

[14] = target: Beta-secretase 1 (Homo sapiens) (UniProt P56817); assay: Inhibition of recombinant human BACE1 using Mca-SEVNLDAEFRK(Dnp)RR-NH2 fluorogenic peptide as substrate incubated for 60 mis by fluorescence based assay; conditions: time 60.0 min
Beta-secretase 1 (Homo sapiens), sequence (P56817 whole entry): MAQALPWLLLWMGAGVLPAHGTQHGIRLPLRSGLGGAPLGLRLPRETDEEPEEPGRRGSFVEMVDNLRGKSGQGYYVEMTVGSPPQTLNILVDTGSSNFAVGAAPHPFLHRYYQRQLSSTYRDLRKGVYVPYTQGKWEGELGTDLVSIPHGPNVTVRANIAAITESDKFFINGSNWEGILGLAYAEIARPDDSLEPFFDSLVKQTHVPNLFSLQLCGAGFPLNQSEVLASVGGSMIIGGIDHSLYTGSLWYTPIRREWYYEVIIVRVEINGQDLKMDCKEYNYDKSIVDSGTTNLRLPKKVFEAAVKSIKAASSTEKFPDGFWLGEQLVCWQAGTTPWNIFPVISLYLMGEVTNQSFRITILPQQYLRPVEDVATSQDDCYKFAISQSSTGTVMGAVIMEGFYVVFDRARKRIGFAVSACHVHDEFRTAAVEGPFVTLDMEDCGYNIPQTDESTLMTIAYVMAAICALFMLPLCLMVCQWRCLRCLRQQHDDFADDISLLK

Cytochrome P450 2D6 = Cytochrome P450 2D6 (Homo sapiens, UniProt P10635); assay: Inhibition of recombinant human CYP2D6 expressed in baculovirus infected insect cells using dextromethorphan as substrate incubated for 30 mins in presence of NADPH-regenerating system by fluorescence based assay; type: ADME
Cytochrome P450 2D6, sequence (P10635 whole entry): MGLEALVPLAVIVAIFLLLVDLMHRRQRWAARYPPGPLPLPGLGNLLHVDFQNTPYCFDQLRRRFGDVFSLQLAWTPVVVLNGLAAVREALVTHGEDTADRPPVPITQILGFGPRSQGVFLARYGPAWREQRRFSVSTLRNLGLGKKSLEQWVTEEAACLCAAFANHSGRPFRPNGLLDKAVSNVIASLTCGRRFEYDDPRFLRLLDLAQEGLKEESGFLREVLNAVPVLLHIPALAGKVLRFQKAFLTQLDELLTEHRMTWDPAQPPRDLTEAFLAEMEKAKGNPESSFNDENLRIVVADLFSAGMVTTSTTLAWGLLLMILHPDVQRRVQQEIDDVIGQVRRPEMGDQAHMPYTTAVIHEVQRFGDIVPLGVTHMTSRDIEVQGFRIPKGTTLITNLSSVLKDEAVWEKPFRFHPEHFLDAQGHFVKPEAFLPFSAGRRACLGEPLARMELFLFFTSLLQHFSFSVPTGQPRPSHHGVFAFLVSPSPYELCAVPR

[15] = Half life in KM mouse at 2 mg/kg, iv administered as cassette dosing measured up to 24 hrs by LC/MS analysis; type: ADME, organism-based; conditions: in vivo
[16] = Plasmodium falciparum, 3D7, 72 h

SMILES | IC50 (Plasmodium falciparum [1]; [16]) [nM] | other results
COc1cccc(CC(=O)N[C@H]2CNC[C@@H]2c2ccc(C(F)(F)F)cc2)c1 (racemic) | 760 | –
CN(C)c1ccc(CC(=O)N[C@H]2CNC[C@@H]2c2ccc(C(C)(F)F)cc2)cc1 | 440 | –
O=C(Cc1ccccc1)N[C@H]1CNC[C@@H]1c1ccc(C(F)(F)F)cc1 (racemic) | 2000 | –
CN(C)c1cccc(CC(=O)N[C@H]2CNC[C@@H]2c2ccc(C(F)(F)F)cc2)c1 (racemic) | 230 | –
CN(C)c1ccc(CC(=O)N[C@@H]2CNC[C@H]2c2ccc(C(F)(F)C(F)(F)F)cc2)cc1 | 140 | –
Cc1cccc(CC(=O)N[C@H]2CNC[C@@H]2c2ccc(C(F)(F)F)cc2)c1 (racemic) | 370 | –
CN(C)c1ccc(CC(=O)N[C@@H]2CNC[C@H]2c2cc3ccccc3s2)cc1 | 150 | –
CN(C)c1ccc(CNC(=O)[C@H]2CNC[C@@H]2c2ccc(C(F)(F)F)nc2)cc1 (racemic) | 250 | –
COc1ccc(CC(=O)N[C@H]2CNC[C@@H]2c2ccc(C(F)(F)F)cc2)cc1 (racemic) | 350 | –
CN(C)c1ccc(CC(=O)N[C@H]2CNC[C@@H]2c2ccc(C(F)(F)F)cc2)cc1 | – | IC50 (Plasmodium falciparum [1]): 860 nM
CN(C)c1ccc(CC(=O)N[C@H]2CNC[C@@H]2c2ccc(C(F)(F)F)nc2)cc1 (racemic) | 210 | –
CN(C)c1ccc(CC(=O)N[C@@H]2CNC[C@H]2c2cc3cc(F)ccc3o2)cc1 | 270 | –
CN(C)c1ccc(CC(=O)N[C@@H]2CNC[C@H]2c2ccc(C(F)(F)C(F)(F)F)nc2)cc1 | 63 | –
CN(C)c1ccc(CC(=O)N[C@@H]2CNC[C@H]2c2ccc(C(F)(F)F)c(Cl)c2)cc1 | 120 | –
COc1ccc(CC(=O)N[C@H]2CNC[C@@H]2c2ccc(C(F)(F)F)cc2)nc1 (racemic) | 3600 | –
CN(C)c1ccc(CC(=O)N[C@@H]2CNC[C@H]2c2cc3cc(Cl)ccc3o2)cc1 | 1000 | –
CN(C)c1ccc(CNC(=O)[C@H]2CNC[C@@H]2c2ccc(C(F)(F)F)cc2)cc1 (racemic) | 190 | –
CN(C)c1ccc(CC(=O)N[C@@H]2CNC[C@H]2c2ccc(C(C)(F)F)nc2)cc1 | 60 | –
CCN(CC)CCCC(C)Nc1ccnc2cc(Cl)ccc12 (stereo unspecified) [CHLOROQUINE] | – | inhibition in vivo at 10 mg/kg/day (Plasmodium chabaudi [2]): 99.9%; concentration at 96 h [3]: 83.4 nM; concentration at 96 h [4]: 68.6 nM; concentration at 96 h [5]: 80.7 nM

SMILES | IC50 (Plasmodium falciparum [1]; [16]) [nM] | other results
CN(C)c1ccc(CC(=O)N[C@@H]2CNC[C@H]2c2cccc(S(F)(F)(F)(F)F)c2)cc1 | 59 | –
C[C@@H]1CC[C@H]2[C@@H](C)C(=O)O[C@@H]3O[C@@]4(C)CC[C@@H]1[C@]32OO4 [ARTEMISININ] | 33 | –
CN(C)c1ccc(CC(=O)N[C@H]2CNC[C@@H]2c2ccc(S(F)(F)(F)(F)F)cc2)cc1 | 1200 | –
Cc1ccc(CC(=O)N[C@H]2CNC[C@@H]2c2ccc(C(F)(F)F)cc2)cn1 (racemic) | 3700 | –
CN(C)c1ccc(CC(=O)N[C@@H]2CNC[C@H]2c2ccc(Br)cc2)cc1 | 140 | –
CN(C)c1ccc(CC(=O)N[C@H]2CNC[C@@H]2c2ccc(C(F)(F)F)cc2)cc1 (racemic) | – | IC50 (Plasmodium falciparum [1]): 96 nM
Cc1ccc(CC(=O)N[C@H]2CNC[C@@H]2c2ccc(C(F)(F)F)cc2)cc1 (racemic) | 230 | –
CN(C)c1ccc(CCC(=O)N[C@H]2CNC[C@@H]2c2ccc(C(F)(F)F)cc2)cc1 (racemic) | 1400 | –
C[C@H](NC(=O)[C@H]1CNC[C@@H]1c1ccc(C(F)(F)F)cc1)c1ccc(N(C)C)cc1 | – | inhibition in vivo at 30 mg/kg/day (Plasmodium chabaudi [6]): 92.2%
CN(C)c1ccc(CC(=O)N[C@@H]2CNC[C@H]2c2ccc(-c3ccccc3)cc2)cc1 | 4600 | –
CN(C)c1ccc(CC(=O)N[C@@H]2CNC[C@H]2c2ccc(S(F)(F)(F)(F)F)cc2)cc1 | 91 | IC50 (Cytochrome P450 1A2): > 100000 nM; IC50 (Plasmodium falciparum [7]): 89 nM; IC50 (Cytochrome P450 3A4): 159 nM; inhibition (Plasmodium falciparum [8]): inactive; Ratio [9]: 6; selectivity ratio at 2 h (hERG): 28; inhibition in vivo at 10 mg/kg/day (Plasmodium chabaudi [2]): 65.3%; inhibition [10]: inactive; concentration at 96 h [3]: 119 nM; clearance [11]: 10.5 mL/min/kg; IC50 [12]: 2570 nM; IC50 (Cytochrome P450 2C19): 29400 nM; Activity (HepG2): Non-Toxic; concentration at 96 h [4]: 14.9 nM; Vd [13]: 6.2 L/kg; IC50 (Cytochrome P450 2C9): 36600 nM; inhibition [14]: inactive; IC50 (Cytochrome P450 2D6): 90000 nM; half-life [15]: 7 h; concentration at 96 h [5]: 129 nM
CN(C)c1ccc(CC(=O)N[C@@H]2CNC[C@H]2c2cc3ccccc3o2)cc1 | 140 | –
Cc1ccc(CC(=O)N[C@H]2CNC[C@@H]2c2ccc(C(F)(F)F)cc2)nc1 (racemic) | 1600 | –
CN(C)c1ccc(CC(=O)N[C@@H]2CNC[C@H]2c2ccc(C(C)(C)C)cc2)cc1 | 120 | –
CN(C)c1ccc(CC(=O)N(C)[C@@H]2CNC[C@H]2c2ccc(C(F)(F)F)cc2)cc1 | 200 | –
Nc1ccc(CC(=O)N[C@H]2CNC[C@@H]2c2ccc(C(F)(F)F)cc2)cc1 (racemic) | 2900 | –
CN1C[C@@H](N(C)C(=O)Cc2ccc(N(C)C)cc2)[C@H](c2ccc(C(F)(F)F)nc2)C1 (racemic) | 1400 | –
CC(C)c1ccc(CC(=O)N[C@H]2CNC[C@@H]2c2ccc(C(F)(F)F)cc2)cc1 (racemic) | 600 | –
COc1ccc(CC(=O)N[C@H]2CNC[C@@H]2c2ccc(C(F)(F)F)cc2)cn1 (racemic) | 2200 | –
